# Results published in ChEMBL document CHEMBL1629655, “Affinity of Tomopenem (CS-023) for penicillin-binding proteins in Staphylococcus aureus, Escherichia coli, and Pseudomonas aeruginosa” (Antimicrob Agents Chemother, 2009).
# Legend:
# [1] = system: Staphylococcus aureus; experiment: Antibacterial activity against Staphylococcus aureus ATCC 6538P by microdilution method; type: functional, organism-based
# [2] = system: Escherichia coli; experiment: Antibacterial activity against Escherichia coli NIHJ by microdilution method; type: functional, organism-based
# [3] = system: Pseudomonas aeruginosa; experiment: Antibacterial activity against Pseudomonas aeruginosa ATCC 15692 by microdilution method; type: functional, organism-based
# [4] = Displacement of [14C]benzylpenicillin from PBP1 in Staphylococcus aureus ATCC 6538P
# [5] = Displacement of [14C]benzylpenicillin from PBP2 Staphylococcus aureus ATCC 6538P
# [6] = Displacement of [14C]benzylpenicillin from PBP3 in Staphylococcus aureus ATCC 6538P
# [7] = Displacement of [14C]benzylpenicillin from PBP4 in Staphylococcus aureus ATCC 6538P
# [8] = Displacement of [14C]benzylpenicillin from PBP1A in Escherichia coli NIHJ
# [9] = Displacement of [14C]benzylpenicillin from PBP1B in Escherichia coli NIHJ
# [10] = Displacement of [14C]benzylpenicillin from PBP2 in Escherichia coli NIHJ
# [11] = Displacement of [14C]benzylpenicillin from PBP3 in Escherichia coli NIHJ
# [12] = Displacement of [14C]benzylpenicillin from PBP4 in Escherichia coli NIHJ
# [13] = Displacement of [14C]benzylpenicillin from PBP5 in Escherichia coli NIHJ
# [14] = Displacement of [14C]benzylpenicillin from PBP6 Escherichia coli NIHJ
# [15] = Displacement of [14C]benzylpenicillin from PBP1A in Pseudomonas aeruginosa ATCC 15692
# [16] = Displacement of [14C]benzylpenicillin from PBP1B in Pseudomonas aeruginosa ATCC 15692
# [17] = Displacement of [14C]benzylpenicillin from PBP2 in Pseudomonas aeruginosa ATCC 15692
# [18] = Displacement of [14C]benzylpenicillin from PBP3 in Pseudomonas aeruginosa ATCC 15692
# [19] = Displacement of [14C]benzylpenicillin from PBP4 in Pseudomonas aeruginosa ATCC 15692
# [20] = Displacement of [14C]benzylpenicillin from PBP 5 in Pseudomonas aeruginosa ATCC 15692
# [21] = Displacement of [14C]benzylpenicillin from PBP 6 in Pseudomonas aeruginosa ATCC 15692
# [22] = system: Staphylococcus aureus; experiment: Antibacterial activity against Staphylococcus aureus SRR2a selected at 2 times MIC of tomopenem by microdilution method; type: functional
# [23] = system: Staphylococcus aureus; experiment: Ratio of MIC for Staphylococcus aureus SRR2a to MIC for Staphylococcus aureus ATCC 6538P; type: functional
# [24] = system: Staphylococcus aureus; experiment: Antibacterial activity against Staphylococcus aureus SIR2a selected at 2 times MIC of imipenem by microdilution method; type: functional
# [25] = system: Staphylococcus aureus; experiment: Ratio of MIC for Staphylococcus aureus SIR2a selected at 2 times MIC of imipenem to MIC for Staphylococcus aureus ATCC 6538P; type: functional
# [26] = system: Staphylococcus aureus; experiment: Antibacterial activity against Staphylococcus aureus SMR2a selected at 2 times MIC of meropenem by microdilution method; type: functional
# [27] = system: Staphylococcus aureus; experiment: Ratio of MIC for Staphylococcus aureus SMR2a to MIC for Staphylococcus aureus ATCC 6538P; type: functional
# [28] = system: Staphylococcus aureus; experiment: Antibacterial activity against Staphylococcus aureus SMR4a […] MIC of meropenem by microdilution method; type: functional
# [29] = system: Staphylococcus aureus; experiment: Ratio of MIC for Staphylococcus aureus SMR4a to MIC for Staphylococcus aureus ATCC 6538P; type: functional
# [30] = system: Escherichia coli; experiment: Antibacterial activity against Escherichia coli ERR2a selected at 2 times MIC of tomopenem by microdilution method; type: functional
# [31] = system: Escherichia coli; experiment: Ratio of MIC for Escherichia coli ERR2a selected to MIC for Escherichia coli NIHJ; type: functional
# [32] = system: Escherichia coli; experiment: Antibacterial activity against Escherichia coli ERR2b selected at 2 times MIC of tomopenem by microdilution method; type: functional
# [33] = system: Escherichia coli; experiment: Ratio of MIC for Escherichia coli ERR2b to MIC for Escherichia coli NIHJ; type: functional
# [34] = system: Escherichia coli; experiment: Antibacterial activity against Escherichia coli ERR4a selected at 4 times MIC of tomopenem by microdilution method; type: functional
# [35] = system: Escherichia coli; experiment: Ratio of MIC for Escherichia coli ERR4a to MIC for Escherichia coli NIHJ; type: functional
# [36] = system: Escherichia coli; experiment: Antibacterial activity against Escherichia coli ERR8a selected at 8 times MIC of tomopenem by microdilution method; type: functional
# [37] = system: Escherichia coli; experiment: Ratio of MIC for Escherichia coli ERR8a to MIC for Escherichia coli NIHJ; type: functional
# [38] = system: Escherichia coli; experiment: Antibacterial activity against Escherichia coli EIR2a selected at 2 times MIC of imipenem by microdilution method; type: functional
# [39] = system: Escherichia coli; experiment: Ratio of MIC for Escherichia coli EIR2a to MIC for Escherichia coli NIHJ; type: functional
# [40] = system: Escherichia coli; experiment: Antibacterial activity against Escherichia coli EIR2b selected at 2 times MIC of imipenem by microdilution method; type: functional
# [41] = system: Escherichia coli; experiment: Ratio of MIC for Escherichia coli EIR2b to MIC for Escherichia coli NIHJ; type: functional
# [42] = system: Escherichia coli; experiment: Antibacterial activity against Escherichia coli EIR4a selected at 4 times MIC of imipenem by microdilution method; type: functional
# [43] = system: Escherichia coli; experiment: Ratio of MIC for Escherichia coli EIR4a to MIC for Escherichia coli NIHJ; type: functional
# [44] = system: Escherichia coli; experiment: Antibacterial activity against Escherichia coli EIR4b selected at 4 times MIC of imipenem by microdilution method; type: functional
# [45] = system: Escherichia coli; experiment: Ratio of MIC for Escherichia coli EIR4b to MIC for Escherichia coli NIHJ; type: functional
# [46] = system: Escherichia coli; experiment: Antibacterial activity against Escherichia coli EIR8a selected at 8 times MIC of imipenem by microdilution method; type: functional
# [47] = system: Escherichia coli; experiment: Ratio of MIC for Escherichia coli EIR8a to MIC for Escherichia coli NIHJ; type: functional
# [48] = system: Escherichia coli; experiment: Antibacterial activity against Escherichia coli EMR2a selected at 2 times MIC of meropenem by microdilution method; type: functional
# [49] = system: Escherichia coli; experiment: Ratio of MIC for Escherichia coli EMR2a to MIC for Escherichia coli NIHJ; type: functional
# [50] = system: Pseudomonas aeruginosa; experiment: Antibacterial activity against Pseudomonas aeruginosa PRR4a selected at 4 times MIC of tomopenem by microdilution method; type: functional
# [51] = system: Pseudomonas aeruginosa; experiment: Ratio of MIC for Pseudomonas aeruginosa PRR4a to MIC for Pseudomonas aeruginosa ATCC 15692; type: functional
# [52] = system: Pseudomonas aeruginosa; experiment: Antibacterial activity against Pseudomonas aeruginosa PIR2a selected at 2 times MIC of imipenem by microdilution method; type: functional
# [53] = system: Pseudomonas aeruginosa; experiment: Ratio of MIC for Pseudomonas aeruginosa PIR2a to MIC for Pseudomonas aeruginosa ATCC 15692; type: functional
# [54] = system: Pseudomonas aeruginosa; experiment: Antibacterial activity against Pseudomonas aeruginosa PMR2a selected at 2 times MIC of meropenem by microdilution method; type: functional
# [55] = system: Pseudomonas aeruginosa; experiment: Ratio of MIC for Pseudomonas aeruginosa PMR2a to MIC for Pseudomonas aeruginosa ATCC 15692; type: functional
smiles,measurement,setting,value
C[C@@H](O)[C@H]1C(=O)N2C(C(=O)O)=C(SCCNC=N)C[C@H]12 [IMIPENEM ANHYDROUS],IC50,[1],0.008 µg/mL
same,MBC,[1],0.008 µg/mL
same,MIC,[1],0.008 µg/mL
same,MBC,[2],0.25 µg/mL
same,MIC,[2],0.25 µg/mL
same,MBC,[3],2 µg/mL
same,MIC,[3],1 µg/mL
same,IC50,[4],0.024 µg/mL
same,IC50,[5],0.047 µg/mL
same,IC50,[6],0.049 µg/mL
same,IC50,[7],0.0078 µg/mL
same,IC50,[8],0.22 µg/mL
same,IC50,[9],1.1 µg/mL
same,IC50,[10],0.045 µg/mL
same,IC50,[11],19 µg/mL
same,IC50,[12],0.44 µg/mL
same,IC50,[13],0.34 µg/mL
same,IC50,[14],1 µg/mL
same,IC50,[15],0.057 µg/mL
same,IC50,[16],0.078 µg/mL
same,IC50,[17],0.066 µg/mL
same,IC50,[18],0.089 µg/mL
same,IC50,[19],0.0032 µg/mL
same,IC50,[20],0.19 µg/mL
same,IC50,[21],0.19 µg/mL
same,MIC,[22],0.03 µg/mL
same,Ratio MIC,[23],4
same,MIC,[24],0.03 µg/mL
same,Ratio MIC,[25],4
same,MIC,[26],0.03 µg/mL
same,Ratio MIC,[27],4
same,MIC,[28],0.03 µg/mL
same,ratio,[29],4
same,MIC,[30],1 µg/mL
same,Ratio MIC,[31],4
same,MIC,[32],1 µg/mL
same,Ratio MIC,[33],4
same,MIC,[34],1 µg/mL
same,Ratio MIC,[35],4
same,MIC,[36],0.5 µg/mL
same,Ratio MIC,[37],2
same,MIC,[38],1 µg/mL
same,Ratio MIC,[39],4
same,MIC,[40],0.5 µg/mL
same,Ratio MIC,[41],2
same,MIC,[42],1 µg/mL
same,Ratio MIC,[43],4
same,MIC,[44],1 µg/mL
same,Ratio MIC,[45],4
same,MIC,[46],0.5 µg/mL
same,Ratio MIC,[47],2
same,MIC,[48],1 µg/mL
same,Ratio MIC,[49],4
same,MIC,[50],8 µg/mL
same,Ratio MIC,[51],8
same,MIC,[52],16 µg/mL
same,Ratio MIC,[53],16
same,MIC,[54],16 µg/mL
same,Ratio MIC,[55],16
C[C@H]1COc2c(N3CCN(C)CC3)c(F)cc3c(=O)c(C(=O)O)cn1c23.C[C@H]1COc2c(N3CCN(C)CC3)c(F)cc3c(=O)c(C(=O)O)cn1c23.O [LEVOFLOXACIN],MIC,[22],0.12 µg/mL
same,Ratio MIC,[23],2
same,MIC,[24],0.06 µg/mL
same,Ratio MIC,[25],1
same,MIC,[26],0.12 µg/mL
same,Ratio MIC,[27],2
same,MIC,[28],0.06 µg/mL
same,ratio,[29],1
same,Ratio MIC,[33],2
same,MIC,[52],0.5 µg/mL
